Laboratory results published in paper PMC12543283, “TastepepAI: An artificial intelligence platform for taste peptide de novo design” (PLOS Computational Biology, 2025).
Ends that are not written are not given here.

Columns and labels:
[1] = Electronic tongue analysis (Taste-Sensing System SA 402B); parameters: unit not given here; conditions: reference solution 30 mM KCl + 0.3 mM tartaric acid as baseline, first measurement excluded; for Umami: sensor AAE; for Umami / Bitter / Sweet: detection threshold 0, room temperature; for Umami / Bitter / Sour / Salty: four replicates; for Sour: detection threshold -13, room temperature; for Salty: detection threshold -6, room temperature; for Sweet: measured five times
Experimental: Taste characteristics were analyzed using the electronic tongue system E-tongue (Taste-Sensing System SA 402B, Intelligent Sensor Technology Co. Ltd., Japan). The system was equipped with five specific sensor probes for detecting sourness (CA0), saltiness (CT0), bitterness (C00), sweetness (GL1), and umami (AAE). Samples were tested at concentrations of 0.1 mg/mL and 1.0 mg/mL. Prior to experiments, sensors were activated by immersion in a reference solution (30 mM KCl and 0.3 mM tartaric acid) for 24 h. A 30 min self-diagnostic procedure was performed before each measurement to ensure data accuracy. The reference solution served both as a cleaning solution and standard solution for taste signal calibration. According to the manufacturer’s instructions, using the reference solution as baseline, the detection thresholds were set at −13 for sourness, −6 for saltiness, and 0 for other taste modalities. Two cleaning solutions were employed for electrode maintenance: (1) 30% ethanol solution containing 100 mM HCl for negative charge reference electrodes, and (2) 30% ethanol solution containing 100 mM KCl and 10 mM KOH for positive charge reference electrodes. All taste measurements were performed at room temperature with four replicates, except for sweetness which was measured five times. The first measurement data were excluded from analysis.

[2] = system: human bronchial epithelial cells (BEAS-2B)
Experimental: (§1) The cytotoxicity of 73 synthetic peptides was evaluated using four human cell lines: human pancreatic ductal epithelial cells (HPNE), human embryonic kidney cells (HEK293T), human umbilical vein endothelial cells (HUVEC), and human bronchial epithelial cells (BEAS-2B). When cell density reached 70% confluence, the complete culture medium was replaced with serum-free maintenance medium, and peptides were added at a final concentration of 100 μM for 36 h. Control groups received only serum-free maintenance medium without peptides. Cell proliferation was assessed using the CCK-8 assay kit (Solarbio, CA1210) according to the manufacturer’s instructions.

[3] = system: human embryonic kidney cells (HEK293T)
[4] = system: human pancreatic ductal epithelial cells (HPNE)
Experimental: as §1

[5] = system: human umbilical vein endothelial cells (HUVEC)

AWDGQ [TaPep73]
Umami ([1]; peptide 0.1 mg/mL): 0.77
Umami ([1]; peptide 1 mg/mL): -5.41
Bitter ([1]; sensor C00, peptide 0.1 mg/mL): 7.64
Bitter ([1]; sensor C00, peptide 1 mg/mL): 4.33
Sour ([1]; sensor CA0, peptide 0.1 mg/mL): -1.22
Sour ([1]; sensor CA0, peptide 1 mg/mL): 13.38
Salty ([1]; sensor CT0, peptide 0.1 mg/mL): -19.69
Salty ([1]; sensor CT0, peptide 1 mg/mL): 8.78
Sweet ([1]; sensor GL1, peptide 0.1 mg/mL): 4.76
Sweet ([1]; sensor GL1, peptide 1 mg/mL): -5.09
Average cell viability, BEAS-2B [2]: 106.58
Cell viability, BEAS-2B, Data1 [2]: 95.61
Cell viability, BEAS-2B, Data2 [2]: 116.85
Cell viability, BEAS-2B, Data3 [2]: 107.28
Average cell viability, HEK293T [3]: 106.97
Cell viability, HEK293T, Data1 [3]: 104.20
Cell viability, HEK293T, Data2 [3]: 108.17
Cell viability, HEK293T, Data3 [3]: 108.55
Average cell viability, HPNE [4]: 107.55
Cell viability, HPNE, Data1 [4]: 109.82
Cell viability, HPNE, Data2 [4]: 117.40
Cell viability, HPNE, Data3 [4]: 95.44
Average cell viability, HUVEC [5]: 105.51
Cell viability, HUVEC, Data1 [5]: 111.28
Cell viability, HUVEC, Data2 [5]: 115.27
Cell viability, HUVEC, Data3 [5]: 89.97

DAAEK [TaPep2]
Umami ([1]; peptide 0.1 mg/mL): 1.21
Umami ([1]; peptide 1 mg/mL): -4.05
Bitter ([1]; sensor C00, peptide 0.1 mg/mL): 7.88
Bitter ([1]; sensor C00, peptide 1 mg/mL): 2.74
Sour ([1]; sensor CA0, peptide 0.1 mg/mL): -2.30
Sour ([1]; sensor CA0, peptide 1 mg/mL): 12.60
Salty ([1]; sensor CT0, peptide 0.1 mg/mL): -19.03
Salty ([1]; sensor CT0, peptide 1 mg/mL): 13.52
Sweet ([1]; sensor GL1, peptide 0.1 mg/mL): 6.09
Sweet ([1]; sensor GL1, peptide 1 mg/mL): -5.50
Average cell viability, BEAS-2B [2]: 107.18
Cell viability, BEAS-2B, Data1 [2]: 116.05
Cell viability, BEAS-2B, Data2 [2]: 111.86
Cell viability, BEAS-2B, Data3 [2]: 93.62
Average cell viability, HEK293T [3]: 92.18
Cell viability, HEK293T, Data1 [3]: 95.02
Cell viability, HEK293T, Data2 [3]: 84.13
Cell viability, HEK293T, Data3 [3]: 97.38
Average cell viability, HPNE [4]: 105.52
Cell viability, HPNE, Data1 [4]: 116.01
Cell viability, HPNE, Data2 [4]: 111.51
Cell viability, HPNE, Data3 [4]: 89.05
Average cell viability, HUVEC [5]: 95.40
Cell viability, HUVEC, Data1 [5]: 97.15
Cell viability, HUVEC, Data2 [5]: 96.19
Cell viability, HUVEC, Data3 [5]: 92.84

DAELDK [TaPep34]
Umami ([1]; peptide 0.1 mg/mL): 0.43
Umami ([1]; peptide 1 mg/mL): -4.87
Bitter ([1]; sensor C00, peptide 0.1 mg/mL): 7.62
Bitter ([1]; sensor C00, peptide 1 mg/mL): 3.25
Sour ([1]; sensor CA0, peptide 0.1 mg/mL): -0.52
Sour ([1]; sensor CA0, peptide 1 mg/mL): 15.34
Salty ([1]; sensor CT0, peptide 0.1 mg/mL): -17.51
Salty ([1]; sensor CT0, peptide 1 mg/mL): 13.63
Sweet ([1]; sensor GL1, peptide 0.1 mg/mL): 5.08
Sweet ([1]; sensor GL1, peptide 1 mg/mL): -6.74
Average cell viability, BEAS-2B [2]: 99.04
Cell viability, BEAS-2B, Data1 [2]: 114.56
Cell viability, BEAS-2B, Data2 [2]: 90.63
Cell viability, BEAS-2B, Data3 [2]: 91.92
Average cell viability, HEK293T [3]: 101.89
Cell viability, HEK293T, Data1 [3]: 98.04
Cell viability, HEK293T, Data2 [3]: 102.49
Cell viability, HEK293T, Data3 [3]: 105.14
Average cell viability, HPNE [4]: 103.89
Cell viability, HPNE, Data1 [4]: 99.83
Cell viability, HPNE, Data2 [4]: 96.64
Cell viability, HPNE, Data3 [4]: 115.21
Average cell viability, HUVEC [5]: 96.25
Cell viability, HUVEC, Data1 [5]: 90.61
Cell viability, HUVEC, Data2 [5]: 95.80
Cell viability, HUVEC, Data3 [5]: 102.34

DFKEELPK [TaPep42]
Umami ([1]; peptide 0.1 mg/mL): 0.30
Umami ([1]; peptide 1 mg/mL): -6.40
Bitter ([1]; sensor C00, peptide 0.1 mg/mL): 7.41
Bitter ([1]; sensor C00, peptide 1 mg/mL): 2.96
Sour ([1]; sensor CA0, peptide 0.1 mg/mL): -0.03
Sour ([1]; sensor CA0, peptide 1 mg/mL): 16.30
Salty ([1]; sensor CT0, peptide 0.1 mg/mL): -15.26
Salty ([1]; sensor CT0, peptide 1 mg/mL): 15.72
Sweet ([1]; sensor GL1, peptide 0.1 mg/mL): 3.04
Sweet ([1]; sensor GL1, peptide 1 mg/mL): -6.66
Average cell viability, BEAS-2B [2]: 106.12
Cell viability, BEAS-2B, Data1 [2]: 95.21
Cell viability, BEAS-2B, Data2 [2]: 103.99
Cell viability, BEAS-2B, Data3 [2]: 119.14
Average cell viability, HEK293T [3]: 100.35
Cell viability, HEK293T, Data1 [3]: 101.45
Cell viability, HEK293T, Data2 [3]: 95.30
Cell viability, HEK293T, Data3 [3]: 104.29
Average cell viability, HPNE [4]: 106.29
Cell viability, HPNE, Data1 [4]: 109.92
Cell viability, HPNE, Data2 [4]: 101.63
Cell viability, HPNE, Data3 [4]: 107.32
Average cell viability, HUVEC [5]: 100.96
Cell viability, HUVEC, Data1 [5]: 109.77
Cell viability, HUVEC, Data2 [5]: 97.95
Cell viability, HUVEC, Data3 [5]: 95.16

DQEPVE [TaPep44]
Umami ([1]; peptide 0.1 mg/mL): 0.51
Umami ([1]; peptide 1 mg/mL): -6.35
Bitter ([1]; sensor C00, peptide 0.1 mg/mL): 7.74
Bitter ([1]; sensor C00, peptide 1 mg/mL): 3.13
Sour ([1]; sensor CA0, peptide 0.1 mg/mL): -0.62
Sour ([1]; sensor CA0, peptide 1 mg/mL): 14.96
Salty ([1]; sensor CT0, peptide 0.1 mg/mL): -19.30
Salty ([1]; sensor CT0, peptide 1 mg/mL): 10.03
Sweet ([1]; sensor GL1, peptide 0.1 mg/mL): 3.94
Sweet ([1]; sensor GL1, peptide 1 mg/mL): -11.10
Average cell viability, BEAS-2B [2]: 101.53
Cell viability, BEAS-2B, Data1 [2]: 108.18
Cell viability, BEAS-2B, Data2 [2]: 97.51
Cell viability, BEAS-2B, Data3 [2]: 98.90
Average cell viability, HEK293T [3]: 102.43
Cell viability, HEK293T, Data1 [3]: 105.71
Cell viability, HEK293T, Data2 [3]: 98.14
Cell viability, HEK293T, Data3 [3]: 103.44
Average cell viability, HPNE [4]: 105.06
Cell viability, HPNE, Data1 [4]: 112.51
Cell viability, HPNE, Data2 [4]: 118.30
Cell viability, HPNE, Data3 [4]: 84.36
Average cell viability, HUVEC [5]: 109.31
Cell viability, HUVEC, Data1 [5]: 108.41
Cell viability, HUVEC, Data2 [5]: 112.00
Cell viability, HUVEC, Data3 [5]: 107.53

DQKVLA [TaPep3]
Umami ([1]; peptide 0.1 mg/mL): 2.16
Umami ([1]; peptide 1 mg/mL): -4.90
Bitter ([1]; sensor C00, peptide 0.1 mg/mL): 7.84
Bitter ([1]; sensor C00, peptide 1 mg/mL): 2.95
Sour ([1]; sensor CA0, peptide 0.1 mg/mL): -4.64
Sour ([1]; sensor CA0, peptide 1 mg/mL): 12.21
Salty ([1]; sensor CT0, peptide 0.1 mg/mL): -20.13
Salty ([1]; sensor CT0, peptide 1 mg/mL): 13.20
Sweet ([1]; sensor GL1, peptide 0.1 mg/mL): 7.95
Sweet ([1]; sensor GL1, peptide 1 mg/mL): -6.65
Average cell viability, BEAS-2B [2]: 108.77
Cell viability, BEAS-2B, Data1 [2]: 109.77
Cell viability, BEAS-2B, Data2 [2]: 102.49
Cell viability, BEAS-2B, Data3 [2]: 114.06
Average cell viability, HEK293T [3]: 94.20
Cell viability, HEK293T, Data1 [3]: 93.79
Cell viability, HEK293T, Data2 [3]: 84.04
Cell viability, HEK293T, Data3 [3]: 104.76
Average cell viability, HPNE [4]: 93.24
Cell viability, HPNE, Data1 [4]: 97.04
Cell viability, HPNE, Data2 [4]: 98.74
Cell viability, HPNE, Data3 [4]: 83.96
Average cell viability, HUVEC [5]: 98.83
Cell viability, HUVEC, Data1 [5]: 114.40
Cell viability, HUVEC, Data2 [5]: 89.41
Cell viability, HUVEC, Data3 [5]: 92.68

EDGPHGD [TaPep45]
Umami ([1]; peptide 0.1 mg/mL): 0.96
Umami ([1]; peptide 1 mg/mL): -5.11
Bitter ([1]; sensor C00, peptide 0.1 mg/mL): 7.77
Bitter ([1]; sensor C00, peptide 1 mg/mL): 4.03
Sour ([1]; sensor CA0, peptide 0.1 mg/mL): -1.77
Sour ([1]; sensor CA0, peptide 1 mg/mL): 12.61
Salty ([1]; sensor CT0, peptide 0.1 mg/mL): -19.03
Salty ([1]; sensor CT0, peptide 1 mg/mL): 9.35
Sweet ([1]; sensor GL1, peptide 0.1 mg/mL): 4.54
Sweet ([1]; sensor GL1, peptide 1 mg/mL): -4.05
Average cell viability, BEAS-2B [2]: 94.75
Cell viability, BEAS-2B, Data1 [2]: 89.83
Cell viability, BEAS-2B, Data2 [2]: 99.50
Cell viability, BEAS-2B, Data3 [2]: 94.92
Average cell viability, HEK293T [3]: 97.35
Cell viability, HEK293T, Data1 [3]: 98.99
Cell viability, HEK293T, Data2 [3]: 96.25
Cell viability, HEK293T, Data3 [3]: 96.81
Average cell viability, HPNE [4]: 101.66
Cell viability, HPNE, Data1 [4]: 107.42
Cell viability, HPNE, Data2 [4]: 100.73
Cell viability, HPNE, Data3 [4]: 96.84
Average cell viability, HUVEC [5]: 98.64
Cell viability, HUVEC, Data1 [5]: 103.46
Cell viability, HUVEC, Data2 [5]: 90.77
Cell viability, HUVEC, Data3 [5]: 101.70
